According to PubChem BioAssay AID2060491 (Molecular Pharmacology Branch, DTP, NCI, 2025):
Blank lines part the entries; values can stand above or below the compound they belong to.

Tested on: 857933-349-R-J2-PDC complex spheroids, viability
Test: Anticancer human tumor 857933-349-R-J2-PDC patient-derived colon adenocarcinoma cell line growth inhibition [GQUAD]
Settings: for IC50: curve of first compound; for viability, T/C: stronger effect = lower value
Source text: DNA G-quadruplex Stabilizer Agents in Combinations in Complex Spheroids
A high-throughput screen of multi-cell type tumor spheroids was designed to identify active combinations of DNA G-quadruplex stabilizer agents and targeted small molecules. Complex spheroids include a stromal component modeled by human endothelial cells (HUVEC) and fibroblasts modeled by human mesenchymal stem cells (MSCs). The concentration ranges selected for each drug and investigational agent were based upon clinically achievable concentrations if the clinical Cmax of the agent was known.
Compounds. The drugs and investigational agents: pidnarulex (CX-5461; NSC782164), APTO-253 (NSC789042), BRACO-19 (NSC847499), peposertib (NSC802822), ceralasertib (NSC780249), elimusertib (NSC800525), camonsertib (NSC841442), AZD-1390 (NSC803789), olaparib (NSC753686), talazoparib (NSC767125), ART-558 (NSC835418), sotorasib (NSC818433), MRTX-1133 (NSC836407), SN-38 (NSC673596), topotecan (NSC609699), etoposide (NSC141540), doxorubicin (NSC123127), gemcitabine (NSC613327), 5-fluorouracil (NSC19893), paclitaxel (NSC125973), vemurafenib (NSC761431), panobinostat (NSC761190), R-306465 (JNJ-16241199; NSC773264), adavosertib (NSC754352), TP-3654 (NSC805149), carboplatin (NSC241240), KSQ-4279 (NSC840948), and staurosporine (NSC755774) were obtained from the National Cancer Institute (NCI) Developmental Therapeutics Program Chemical Repository (34). The FDA-approved anticancer drug set is available from the NCI Developmental Therapeutics Program. […] The stock solutions were prepared in dimethyl sulfoxide (DMSO, Sigma-Aldrich, St. Louis, MO, cat. D2650) at 800-fold the tested concentration and stored at -70 degrees C prior to their use. All drugs and investigational agents were tested over a range starting from a high concentration at or near the clinical Cmax and decreasing in half-log increments. If the clinical Cmax for an agent had not been determined, the highest concentration tested was 10 microM.
2.3 Cell Culture. All cells were maintained in an incubator at 37 degrees C and 5% CO2 with 95% humidity. The PDC lines were cultured according to standard operating procedures established by the NCI PDMR. All PDCs were thawed and cultured in Matrigel-coated flasks prepared with a working solution of 1X Ham's F-12 nutrient mix, without supplementation (Invitrogen, cat. 11765054), 100 U/mL penicillin-streptomycin (Invitrogen, cat. 15140122), and 2.5% Matrigel (Corning Inc., cat. 354248) for the first three passages. The 857933-349-R-J2-PDC line was cultured in 6C/Colon 1B media, which includes advanced DMEM/F-12 (Thermo Fisher Scientific, cat. 12634028), 10 mM HEPES (Thermo Fisher Scientific, cat. 15630080), 1X GlutaMAX supplement (Thermo Fisher Scientific, cat. 35050061), 0.1 mg/mL primocin (InvivoGen, cat. ant-pm-2), 10% defined fetal bovine serum, heat inactivated (HyClone Laboratories Inc., cat. SH30070.03HI), 50% L-WRN conditioned media (ATCC, cat. CRL-3276), 1.25 mM N-Acetyl-L-cysteine (Sigma-Aldrich, cat. A9165), 10 mM nicotinamide (Sigma-Aldrich, cat. N0636), 1X B-27 supplement (Thermo Fisher Scientific, cat. 17504044), 1X N-2 supplement (Thermo Fisher Scientific, cat. 17502048), 10 microM Y-27632 dihydrochloride (Tocris Bioscience, cat. 1254), and 50 ng/mL human EGF recombinant protein (Thermo Fisher Scientific, cat. PHG0311). The 485176-168-R4-J1-PDC line was cultured in Panc media, which includes all 6C/Colon 1B media components plus 100 ng/mL human FGF-10 (Thermo Fisher Scientific, cat. 100-26), 500 nM SB-431542 (Selleckchem, cat. S1067), and gastrin (Tocris, cat. 3006).
[…]

[1] = second compound 0.0316 µM, first compound 0.0316 µM
[2] = second compound 0.0316 µM, first compound 0.316 µM
[3] = second compound 0.1 µM, first compound 0.0316 µM
[4] = second compound 0.1 µM, first compound 0.316 µM
[5] = second compound 0.316 µM, first compound 0.0316 µM
[6] = second compound 0.316 µM, first compound 0.316 µM
[7] = second compound 1 µM, first compound 0.0316 µM
[8] = second compound 1 µM, first compound 0.316 µM
[9] = second compound 3.16 µM, first compound 0.0316 µM
[10] = second compound 3.16 µM, first compound 0.316 µM
[11] = second compound 10 µM, first compound 0.0316 µM
[12] = second compound 10 µM, first compound 0.316 µM
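Also: spheroids exposed to compounds for one week before readout.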
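For viability, T/C in this document: percent viability relative to vehicle DMSO wells taken as 100%.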

IC50 (second compound 0.0316 µM): 267 nM | IC50 (second compound 0.1 µM): 155 nM | IC50 (second compound 0.316 µM): < 0.999 nM | IC50 (second compound 1 µM): < 0.999 nM | IC50 (second compound 3.16 µM): < 0.999 nM | IC50 (second compound 10 µM): < 0.999 nM
SMILES: Cc1[nH]c2ccccc2c1CCNCc1ccc(/C=C/C(=O)NO)cc1 + Cc1cnc(CNC(=O)c2c(=O)c3ccc(N4CCCN(C)CC4)nc3n3c2sc2ccccc23)cn1
viability, T/C (second compound 0.0316 µM, first compound 0.000999 µM): 91% | viability, T/C (second compound 0.0316 µM, first compound 0.00316 µM): 93.7% | viability, T/C (second compound 0.0316 µM, first compound 0.00999 µM): 106% | viability, T/C [1]: 86.5% | viability, T/C (second compound 0.0316 µM, first compound 0.0999 µM): 93.8% | viability, T/C [2]: 42.5% | viability, T/C (second compound 0.1 µM, first compound 0.000999 µM): 51.7% | viability, T/C (second compound 0.1 µM, first compound 0.00316 µM): 65.6% | viability, T/C (second compound 0.1 µM, first compound 0.00999 µM): 65.6% | viability, T/C [3]: 77% | viability, T/C (second compound 0.1 µM, first compound 0.0999 µM): 75.5% | viability, T/C [4]: 22.2% | viability, T/C (second compound 0.316 µM, first compound 0.000999 µM): 20.1% | viability, T/C (second compound 0.316 µM, first compound 0.00316 µM): 27.2% | viability, T/C (second compound 0.316 µM, first compound 0.00999 µM): 28.9% | viability, T/C [5]: 47.6% | viability, T/C (second compound 0.316 µM, first compound 0.0999 µM): 37.1% | viability, T/C [6]: 3.64% | viability, T/C (second compound 1 µM, first compound 0.000999 µM): 4.8% | viability, T/C (second compound 1 µM, first compound 0.00316 µM): 4.9% | viability, T/C (second compound 1 µM, first compound 0.00999 µM): 6.18% | viability, T/C [7]: 9.89% | viability, T/C (second compound 1 µM, first compound 0.0999 µM): 5.17% | viability, T/C [8]: 0.17% | viability, T/C (second compound 3.16 µM, first compound 0.000999 µM): 2.36% | viability, T/C (second compound 3.16 µM, first compound 0.00316 µM): 3.21% | viability, T/C (second compound 3.16 µM, first compound 0.00999 µM): 2.34% | viability, T/C [9]: 1.12% | viability, T/C (second compound 3.16 µM, first compound 0.0999 µM): 0.55% | viability, T/C [10]: 0.15% | viability, T/C (second compound 10 µM, first compound 0.000999 µM): 0.3% | viability, T/C (second compound 10 µM, first compound 0.00316 µM): 0.24% | viability, T/C (second compound 10 µM, first compound 0.00999 µM): 0.43% | viability, T/C [11]: 0.42% | viability, T/C (second compound 10 µM, first compound 0.0999 µM): 0.37% | viability, T/C [12]: 0.26%

IC50 (second compound 0.0316 µM): 168 nM | IC50 (second compound 0.1 µM): 154 nM | IC50 (second compound 0.316 µM): < 31.6 nM | IC50 (second compound 1 µM): < 31.6 nM | IC50 (second compound 3.16 µM): < 31.6 nM | IC50 (second compound 10 µM): < 31.6 nM
SMILES: Nc1ccn(C2OC(CO)C(O)C2(F)F)c(=O)n1 (centres undefined) + Cc1cnc(CNC(=O)c2c(=O)c3ccc(N4CCCN(C)CC4)nc3n3c2sc2ccccc23)cn1
viability, T/C [1]: 75.9% | viability, T/C (second compound 0.0316 µM, first compound 0.1 µM): 52.3% | viability, T/C [2]: 46.6% | viability, T/C (second compound 0.0316 µM, first compound 1 µM): 9.53% | viability, T/C (second compound 0.0316 µM, first compound 3.16 µM): 6.32% | viability, T/C (second compound 0.0316 µM, first compound 10 µM): 3.33% | viability, T/C [3]: 63.6% | viability, T/C (second compound 0.1 µM, first compound 0.1 µM): 61% | viability, T/C [4]: 32.8% | viability, T/C (second compound 0.1 µM, first compound 1 µM): 9.17% | viability, T/C (second compound 0.1 µM, first compound 3.16 µM): 3.78% | viability, T/C (second compound 0.1 µM, first compound 10 µM): 2.52% | viability, T/C [5]: 28.4% | viability, T/C (second compound 0.316 µM, first compound 0.1 µM): 18.3% | viability, T/C [6]: 10.9% | viability, T/C (second compound 0.316 µM, first compound 1 µM): 3.62% | viability, T/C (second compound 0.316 µM, first compound 3.16 µM): 2.32% | viability, T/C (second compound 0.316 µM, first compound 10 µM): 1.88% | viability, T/C [7]: 5.32% | viability, T/C (second compound 1 µM, first compound 0.1 µM): 4.52% | viability, T/C [8]: 2.56% | viability, T/C (second compound 1 µM, first compound 1 µM): 1.63% | viability, T/C (second compound 1 µM, first compound 3.16 µM): 1.61% | viability, T/C (second compound 1 µM, first compound 10 µM): 1.61% | viability, T/C [9]: 2.51% | viability, T/C (second compound 3.16 µM, first compound 0.1 µM): 2.77% | viability, T/C [10]: 1.64% | viability, T/C (second compound 3.16 µM, first compound 1 µM): 1.52% | viability, T/C (second compound 3.16 µM, first compound 3.16 µM): 1.19% | viability, T/C (second compound 3.16 µM, first compound 10 µM): 0.24% | viability, T/C [11]: 1.6% | viability, T/C (second compound 10 µM, first compound 0.1 µM): 1.03% | viability, T/C [12]: 1.41% | viability, T/C (second compound 10 µM, first compound 1 µM): 0.26% | viability, T/C (second compound 10 µM, first compound 3.16 µM): 0.21% | viability, T/C (second compound 10 µM, first compound 10 µM): 0.2%
